Patent US20200253990A1, “ASPIRIN FORMULATION FOR INCREASED EFFICACY” (Vitalis LLC, priority 2013, published 2020)

Columns and labels:
[1] = cited from earlier work
[2] = test system: Healthy human patients who experience non-specific headaches; test: Headache rated on 10-point scale, aspirin with acetaminophen and caffeine, Example 4; assay type: in vivo; conditions: 30 minutes
Protocol: (§1) Healthy human patients who experience non-specific headaches were recruited for this study. […] Each patient was asked to rate his or her headache on the 10-point scale (see FIG. 3). The patient then swallowed 486 mg of aspirin (6 tablets of 81 mg each) without chewing, immediately followed by swallowing a combination of pill 1000 mg acetaminophen and 130 mg caffeine. Each patient was asked to rate his or headache again on the 10-point scale 30-minutes later. […] The patient then chewed 486 mg of aspirin (6 tablets of 81 mg each) and rubbed the aspirin in their oral mucosa, lips, gums and mouth and was asked to be careful not to swallow any of the aspirin, but to wash out their mouth afterwards with a sip of soda and spitting out such that no aspirin was swallowed. This was immediately followed by the patient swallowing a combination pill of 1000 mg acetaminophen and 130 mg caffeine. Each patient was asked to rate his or headache again on the 10-point scale 30-minutes later. Not until at least two days later did Period III start. […] The patient then chewed 486 mg of aspirin (6 tablets of 81 mg each) and rubbed the aspirin in their oral mucosa, lips, gums and mouth for about 10 seconds or until half was dissolved, then to take a sip of soda to wash the rest, but this time to swallow the soda and aspirin such that half was swallowed. This was immediately followed by the patient swallowing a combination pill of 1000 mg acetaminophen and 130 mg caffeine. Each patient was asked to rate his or headache again on the 10-point scale 30-minutes later.

Healthy human patients = test: Niacin flush rated on the Global Flush Severity Scale (GFSS), Example 1; assay type: in vivo; conditions: then 500 mg niacin
Protocol: Healthy human patients were recruited for this study. […] Each patient was asked to rate his or her flush on the Global Flush Severity Scale (GFSS) (see FIG. 1 and Paolini et al. Int. J. Clin. Pract. 62(6):896-904 (2008)), when the flush completely resolved. The Global Flushing Severity Score measures, overall, in the previous 24 hours, how each patient rates the flushing symptoms, including redness, warmth, tingling, and itchiness of the skin. […] After the flush completely resolved, then each patient recorded his or her GFSS flush rating. Not until at least two days later did Period III start. At Period III, each patient was asked to not swallow the orally administered aspirin (81 mg) but to allow the aspirin to be absorbed through the oral mucosa. The aspirin was in powdered form and the remaining aspirin in the mouth was washed out with water. […] Still, the flush was rated (GFSS) after it was resolved. […] The flush was then rated (GFSS) after it completely resolved.

[3] = test system: Healthy human patients who experience non-specific headaches; test: Headache rated on 10-point scale, aspirin alone, Example 5; assay type: in vivo; conditions: 30 minutes
Protocol: as §1, with “891” for “486”, “(11” for “(6”, “chewing.” for “chewing, immediately followed by swallowing a combination of pill 1000 mg acetaminophen and 130 mg caffeine.”, “swallowed.” for “swallowed. This was immediately followed by the patient swallowing a combination pill of 1000 mg acetaminophen and 130 mg caffeine.”

[4] = Period II: 81 mg aspirin swallowed
[5] = Period IV: 81 mg aspirin half mucosally absorbed and half swallowed

SMILES | time to peak of aspirin serum levels following administration ([1]; GI-absorbed aspirin) [min] | decrease in headache ([2]; Period I: 486 mg aspirin swallowed + 1000 mg acetaminophen and 130 mg caffeine) [%] | decrease in headache ([2]; Period II: 486 mg aspirin chewed, oral mucosa only, none swallowed + 1000 mg acetaminophen and 130 mg caffeine) [%] | decrease in headache ([2]; Period III: 486 mg aspirin half dissolved in mouth, half swallowed + 1000 mg acetaminophen and 130 mg caffeine) [%] | Global Flush Severity Scale (GFSS) average score (Healthy human patients; [4]) | reduction of flush severity from Period I (Healthy human patients; [4]) [%] | Global Flush Severity Scale (GFSS) average score (Healthy human patients; Period III: 81 mg aspirin mucosally absorbed (not swallowed)) | reduction of flush severity from Period I (Healthy human patients; Period III: 81 mg aspirin mucosally absorbed) [%] | Global Flush Severity Scale (GFSS) average score (Healthy human patients; [5]) | reduction of flush severity from Period I (Healthy human patients; [5]) [%] | decrease in headache ([3]; Period I: 891 mg aspirin swallowed) [%] | decrease in headache ([3]; Period II: 891 mg aspirin chewed, oral mucosa only, none swallowed) [%] | decrease in headache ([3]; Period III: 891 mg aspirin half dissolved in mouth, half swallowed) [%] | time within which most of the elimination from the serum occurs ([1]; salicylic acid, metabolite of aspirin) [min]
CC(=O)Oc1ccccc1C(=O)O [aspirin, acetylsalicylic acid] | 15 to 20 | 55 | 62 | 77 | 6.88 | 18 | 5.06 | 40 | 3.94 | 53 | 53 | 57 | 86 | –
O=C(O)c1ccccc1O [salicylic acid] | – | – | – | – | – | – | – | – | – | – | – | – | – | ≤ 20
